Laboratory results as given in the supplement of paper PMC10307832.

What was measured:
Experiment in all cases: relative viability (nuclei count vs DMSO), 5 days (fraction); higher = more cells survive
AZD8055 + Luminespib = compound: COc1ccc(-c2ccc3c(N4CCOC[C@@H]4C)nc(N4CCOC[C@@H]4C)nc3n2)cc1CO [AZD8055] + CCNC(=O)c1noc(-c2cc(C(C)C)c(O)cc2O)c1-c1ccc(CN2CCOCC2)cc1 [Luminespib] (partner 0.01 µM)
Summary of the method: (§1)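 Relative viability divides the nuclei count in treated wells by that in vehicle wells. Lung cancer cell lines were seeded in 1536-well plates, dosed by pin tool the next day, and fixed and stained after 5 days in one step with final 0.05% Triton X-100, 1% formaldehyde and 1 ug/ml Hoechst. Dosing was a single drug or a fixed anchor-drug dose plus five library-drug doses (not always all listed) in √10 steps, and values are medians of duplicate plates imaged at 4×.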

AZD8055 + Bortezomib = compound: COc1ccc(-c2ccc3c(N4CCOC[C@@H]4C)nc(N4CCOC[C@@H]4C)nc3n2)cc1CO [AZD8055] + CC(C)C[C@H](NC(=O)[C@H](Cc1ccccc1)NC(=O)c1cnccn1)B(O)O [Bortezomib] (partner 0.002 µM)
Summary of the method: as §1

AZD8055 + Dasatinib = compound: COc1ccc(-c2ccc3c(N4CCOC[C@@H]4C)nc(N4CCOC[C@@H]4C)nc3n2)cc1CO [AZD8055] + Cc1nc(Nc2ncc(C(=O)Nc3c(C)cccc3Cl)s2)cc(N2CCN(CCO)CC2)n1 [Dasatinib] (partner 0.075 µM)
Summary of the method: as §1

AZD8055 + Palbociclib = compound: COc1ccc(-c2ccc3c(N4CCOC[C@@H]4C)nc(N4CCOC[C@@H]4C)nc3n2)cc1CO [AZD8055] + CC(=O)c1c(C)c2cnc(Nc3ccc(N4CCNCC4)cn3)nc2n(C2CCCC2)c1=O [Palbociclib] (partner 0.5 µM)
Summary of the method: as §1

Cell Line | relative viability (AZD8055 + Luminespib; first compound 0.01 µM) | relative viability (AZD8055 + Luminespib; first compound 0.03162 µM) | relative viability (AZD8055 + Luminespib; first compound 0.1 µM) | relative viability (AZD8055 + Luminespib; first compound 0.3162 µM) | relative viability (AZD8055 + Luminespib; first compound 1 µM) | relative viability (AZD8055 + Bortezomib; first compound 0.01 µM) | relative viability (AZD8055 + Bortezomib; first compound 0.03162 µM) | relative viability (AZD8055 + Bortezomib; first compound 0.1 µM) | relative viability (AZD8055 + Bortezomib; first compound 0.3162 µM) | relative viability (AZD8055 + Bortezomib; first compound 1 µM) | relative viability (AZD8055 + Dasatinib; first compound 0.01 µM) | relative viability (AZD8055 + Dasatinib; first compound 0.03162 µM) | relative viability (AZD8055 + Dasatinib; first compound 0.1 µM) | relative viability (AZD8055 + Dasatinib; first compound 0.3162 µM) | relative viability (AZD8055 + Dasatinib; first compound 1 µM) | relative viability (AZD8055 + Palbociclib; first compound 0.01 µM) | relative viability (AZD8055 + Palbociclib; first compound 0.03162 µM) | relative viability (AZD8055 + Palbociclib; first compound 0.1 µM) | relative viability (AZD8055 + Palbociclib; first compound 0.3162 µM) | relative viability (AZD8055 + Palbociclib; first compound 1 µM)
LOU-NH91 | 0.349 | 0.348 | 0.325 | 0.282 | 0.317 | 0.452 | 0.512 | 0.489 | 0.497 | 0.381 | 0.545 | 0.6 | 0.415 | 0.431 | 0.406 | 0.531 | 0.536 | 0.589 | 0.552 | 0.497
HOP-62 | 1.08 | 0.842 | 0.888 | 0.634 | 0.482 | 0.669 | 0.747 | 0.969 | 0.304 | 0.469 | 0.741 | 0.554 | 0.556 | 0.272 | 0.171 | 0.428 | 0.441 | 0.414 | 0.171 | 0.172
NCI-H1915 | 0.777 | 0.727 | 0.598 | 0.5 | 0.322 | 1.09 | 0.961 | 1.02 | 0.663 | 0.652 | 0.27 | 0.297 | 0.281 | 0.177 | 0.174 | 0.491 | 0.44 | 0.425 | 0.282 | 0.203
NCI-H3122 | 0.0869 | 0.101 | 0.114 | 0.0794 | 0.0854 | 1.14 | 0.998 | 1.09 | 0.728 | 0.657 | 0.653 | 0.684 | 0.783 | 0.223 | 0.292 | 0.194 | 0.197 | 0.155 | 0.147 | 0.117
NCI-H1651 | 0.925 | 0.798 | 0.779 | 0.412 | 0.313 | 1.12 | 0.914 | 0.924 | 0.609 | 0.696 | 0.455 | 0.368 | 0.307 | 0.226 | 0.253 | 0.507 | 0.472 | 0.478 | 0.298 | 0.253
NCI-H838 | 0.317 | 0.223 | 0.234 | 0.156 | 0.196 | 1.37 | 0.513 | 0.302 | 0.227 | 0.298 | 0.269 | 0.264 | 0.262 | 0.231 | 0.217 | 0.214 | 0.156 | 0.163 | 0.16 | 0.17
SK-LU-1 | 0.205 | 0.185 | 0.159 | 0.145 | 0.154 | 1.25 | 1.06 | 0.74 | 0.481 | 0.422 | 0.163 | 0.161 | 0.136 | 0.113 | 0.121 | 0.401 | 0.32 | 0.288 | 0.299 | 0.261
NCI-H441 | 0.347 | 0.291 | 0.283 | 0.22 | 0.221 | 0.502 | 0.577 | 0.396 | 0.168 | 0.186 | 0.538 | 0.608 | 0.474 | 0.281 | 0.245 | 0.178 | 0.185 | 0.179 | 0.144 | 0.14
